Source: patent US11945836B2, “Compositions and methods for treating CNS disorders” (Sage Therapeutics, Inc., priority 2014, dated 2024)

These compounds were tested against rat brain cortical membranes ([35S]-TBPS binding) (assay: Steroid inhibition of [35S]-TBPS binding (radioligand displacement)). Settings: 3 nM [35S]-TBPS, in the presence of 5 μM GABA.
Procedure: Steroid Inhibition of TBPS Binding
TBPS binding assays using rat brain cortical membranes in the presence of 5 μM GABA has been described (Gee et al, J. Pharmacol. Exp. Ther. 1987, 241, 346-353; Hawkinson et al, Mol. Pharmacol. 1994, 46, 977-985; Lewin, A. H et al., Mol. Pharmacol. 1989, 35, 189-194).
Briefly, cortices are rapidly removed following decapitation of carbon dioxide-anesthetized Sprague-Dawley rats (200-250 g). The cortices are homogenized in 10 volumes of ice-cold 0.32 M sucrose using a glass/teflon homogenizer and centrifuged at 1500×g for 10 min at 4° C. The resultant supernatants are centrifuged at 10,000×g for 20 min at 4° C. to obtain the P2 pellets. The P2 pellets are resuspended in 200 mM NaCl/50 mM Na—K phosphate pH 7.4 buffer and centrifuged at 10,000×g for 10 min at 4° C. This washing procedure is repeated twice and the pellets are resuspended in 10 volumes of buffer. Aliquots (100 uL) of the membrane suspensions are incubated with 3 nM [^35S]-TBPS and 5 μL aliquots of test drug dissolved in dimethyl sulfoxide (DMSO) (final 0.5%) in the presence of 5 μM GABA. The incubation is brought to a final volume of 1.0 mL with buffer. […] Following a 90 min incubation at room temp, the assays are terminated by filtration through glass fiber filters (Schleicher and Schuell No. 32) using a cell harvester (Brandel) and rinsed three times with ice-cold buffer. Filter bound radioactivity is measured by liquid scintillation spectrometry. Non-linear curve fitting of the overall data for each drug averaged for each concentration is done using Prism (GraphPad). […] The concentration of test compound producing 50% inhibition (IC50) of specific binding and the maximal extent of inhibition (Imax) are determined for the individual experiments with the same model used for the overall data and then the means±SEMs of the individual experiments are calculated.
Various compounds are or can be screened to determine their potential as modulators of [^35S]-TBPS binding in vitro. These assays are or can be performed in accordance with the above discussed procedures.
In the case of `C[C@@]1(O)CC[C@@]2(C)[C@@H](CC[C@@H]3[C@@H]2CC[C@]2(C)[C@@H](C(=O)c4cccc(Cl)c4)CC[C@@H]32)C1` [Compound 101], the IC50 is reported as over 100 nM.
`COc1ccc(C(=O)[C@H]2CC[C@H]3[C@@H]4CC[C@H]5C[C@](C)(O)CC[C@]5(C)[C@H]4CC[C@]23C)c(C)c1` [Compound 132] was tested, and the IC50 was over 100 nM.
Compound `CCc1ccc(C(=O)[C@H]2CC[C@H]3[C@@H]4CC[C@H]5C[C@](C)(O)CC[C@]5(C)[C@H]4CC[C@]23C)cc1` [Compound 134] has an IC50 of over 100 nM.
`Cn1c(C(=O)[C@H]2CC[C@H]3[C@@H]4CC[C@@H]5C[C@](C)(O)CC[C@@H]5[C@H]4CC[C@]23C)nc2ccccc21` [Compound 6] gave an IC50 of over 100 nM.
In the case of `C[C@@]1(O)CC[C@H]2[C@H](CC[C@@H]3[C@@H]2CC[C@]2(C)[C@@H](C(=O)c4ccc(F)cc4)CC[C@@H]32)C1` [Compound 55], the IC50 is reported as 20 to 50 nM.
Work on `C[C@@]1(O)CC[C@H]2[C@H](CC[C@@H]3[C@@H]2CC[C@]2(C)[C@@H](C(=O)c4cnn[nH]4)CC[C@@H]32)C1` [Compound 98] yielded an IC50 of over 100 nM.
Work on `COc1ccccc1C(=O)[C@H]1CC[C@H]2[C@@H]3CC[C@@H]4C[C@](C)(O)CC[C@@H]4[C@H]3CC[C@]12C` [Compound 50] yielded an IC50 of over 100 nM.
`COc1ccc(C(=O)[C@H]2CC[C@H]3[C@@H]4CC[C@@H]5C[C@](C)(O)CC[C@@H]5[C@H]4CC[C@]23C)c(C)c1` [Compound 43] showed an IC50 of 20 to 50 nM.
Work on `C[C@@]1(O)CC[C@@]2(C)[C@H](CC[C@@H]3[C@@H]2CC[C@]2(C)[C@@H](C(=O)c4ccccn4)CC[C@@H]32)C1` [Compound 62] yielded an IC50 of over 100 nM.
`Cc1cc(C)cc(C(=O)[C@H]2CC[C@H]3[C@@H]4CC[C@@H]5C[C@](C)(O)CC[C@@H]5[C@H]4CC[C@]23C)c1` [Compound 16] was tested, and the IC50 was under 20 nM.
`C[C@@]1(O)CC[C@H]2[C@@H](CC[C@@H]3[C@@H]2CC[C@]2(C)[C@@H](C(=O)c4ccc(-c5ccccc5)cc4)CC[C@@H]32)C1` [Compound 58] was tested, and the IC50 was 50 to 100 nM.
With `Cc1ccc(C(=O)[C@H]2CC[C@H]3[C@@H]4CC[C@@H]5C[C@](C)(O)CC[C@]5(C)[C@H]4CC[C@]23C)cc1F` [Compound 27] the IC50 was 20 to 50 nM.
For `COC[C@]12CC[C@@](C)(O)C[C@@H]1CC[C@H]1[C@@H]3CC[C@H](C(=O)c4ccc(C)c(C)c4)[C@@]3(C)CC[C@@H]12` [Compound 95], the IC50 was over 100 nM.
Work on `Cc1cccc(C(=O)[C@H]2CC[C@H]3[C@@H]4CC[C@@H]5C[C@](C)(O)CC[C@]5(C)[C@H]4CC[C@]23C)c1` [Compound 73] yielded an IC50 of 50 to 100 nM.
`COc1ccc2cc(C(=O)[C@H]3CC[C@H]4[C@@H]5CC[C@@H]6C[C@](C)(O)CC[C@@H]6[C@H]5CC[C@]34C)ccc2c1` [Compound 72] was tested, and the IC50 was 20 to 50 nM.
Work on `Cc1ccc(C(=O)[C@H]2CC[C@H]3[C@@H]4CC[C@@H]5C[C@](C)(O)CC[C@]5(C)[C@H]4CC[C@]23C)cc1` [Compound 89] yielded an IC50 of 50 to 100 nM.
With `C[C@@]1(O)CC[C@H]2[C@H](CC[C@@H]3[C@@H]2CC[C@]2(C)[C@@H](C(=O)c4ccc(Cl)cc4)CC[C@@H]32)C1` [Compound 52] the IC50 was 20 to 50 nM.
Compound `C[C@@]1(O)CC[C@@]2(C)[C@@H](CC[C@@H]3[C@@H]2CC[C@]2(C)[C@@H](C(=O)c4ccccc4-c4ccccc4)CC[C@@H]32)C1` [Compound 127] has an IC50 of over 100 nM.
For `Cc1cc(C(=O)[C@H]2CC[C@H]3[C@@H]4CC[C@@H]5C[C@](C)(O)CC[C@@H]5[C@H]4CC[C@]23C)ccc1F` [Compound 26], the IC50 was 20 to 50 nM.
Compound `Cc1ccccc1C(=O)[C@H]1CC[C@H]2[C@@H]3CC[C@@H]4C[C@](C)(O)CC[C@@H]4[C@H]3CC[C@]12C` [Compound 64] has an IC50 of over 100 nM.
Compound `Cc1cc(C(=O)[C@H]2CC[C@H]3[C@@H]4CC[C@H]5C[C@](C)(O)CC[C@]5(C)[C@H]4CC[C@]23C)ccc1F` [Compound 38] has an IC50 of 50 to 100 nM.
In the case of `C[C@@]1(O)CC[C@@]2(C)[C@H](CC[C@@H]3[C@@H]2CC[C@]2(C)[C@@H](C(=O)c4ccc(Cl)cc4)CC[C@@H]32)C1` [Compound 51], the IC50 is reported as 50 to 100 nM.
In the case of `CCc1ccc(C(=O)[C@H]2CC[C@H]3[C@@H]4CC[C@@H]5C[C@](C)(O)CC[C@@H]5[C@H]4CC[C@]23C)cc1` [Compound 42], the IC50 is reported as under 20 nM.
`COC[C@]12CC[C@@](C)(O)C[C@@H]1CC[C@H]1[C@@H]3CC[C@H](C(=O)c4ccc(OC(F)(F)F)cc4)[C@@]3(C)CC[C@@H]12` [Compound 102] gave an IC50 of 50 to 100 nM.
Work on `CN(C)c1ccc(C(=O)[C@H]2CC[C@H]3[C@@H]4CC[C@@H]5C[C@](C)(O)CC[C@@H]5[C@H]4CC[C@]23C)cc1` [Compound 32] yielded an IC50 of 20 to 50 nM.
Compound `CCc1ccc(C(=O)[C@H]2CC[C@H]3[C@@H]4CC[C@@H]5C[C@](C)(O)CC[C@]5(C)[C@H]4CC[C@]23C)cc1` [Compound 49] has an IC50 of under 20 nM.
`COC[C@]12CC[C@@](C)(O)C[C@@H]1CC[C@H]1[C@@H]3CC[C@H](C(=O)c4ccccn4)[C@@]3(C)CC[C@@H]12` [Compound 115] was tested, and the IC50 was over 100 nM.
With `Cn1c(C(=O)[C@H]2CC[C@H]3[C@@H]4CC[C@@H]5C[C@](C)(O)CC[C@@H]5[C@H]4CC[C@]23C)cc2ccccc21` [Compound 7] the IC50 was 50 to 100 nM.
`COc1ccc(C(=O)[C@H]2CC[C@H]3[C@@H]4CC[C@@H]5C[C@](C)(O)CC[C@]5(C)[C@H]4CC[C@]23C)c(C)c1` [Compound 33] was tested, and the IC50 was over 100 nM.
`Cn1ccc(C(=O)[C@H]2CC[C@H]3[C@@H]4CC[C@H]5C[C@](C)(O)CC[C@]5(C)[C@H]4CC[C@]23C)n1` [Compound 123] gave an IC50 of over 100 nM.
Compound `COC[C@]12CC[C@@](C)(O)C[C@@H]1CC[C@H]1[C@@H]3CC[C@H](C(=O)c4ccccc4-c4ccccc4)[C@@]3(C)CC[C@@H]12` [Compound 91] has an IC50 of over 100 nM.
With `COc1ccccc1C(=O)[C@H]1CC[C@H]2[C@@H]3CC[C@H]4C[C@](C)(O)CC[C@]4(C)[C@H]3CC[C@]12C` [Compound 78] the IC50 was over 100 nM.
For `COC[C@]12CC[C@@](C)(O)C[C@@H]1CC[C@H]1[C@@H]3CC[C@H](C(=O)c4ccc5cc(OC)ccc5c4)[C@@]3(C)CC[C@@H]12` [Compound 97], the IC50 was over 100 nM.
`C[C@@]1(O)CC[C@@]2(C)[C@@H](CC[C@@H]3[C@@H]2CC[C@]2(C)[C@@H](C(=O)c4ccc(Cl)cc4)CC[C@@H]32)C1` [Compound 81] showed an IC50 of over 100 nM.
In the case of `Cc1ccc(C(=O)[C@H]2CC[C@H]3[C@@H]4CC[C@H]5C[C@](C)(O)CC[C@]5(C)[C@H]4CC[C@]23C)cc1C` [Compound 39], the IC50 is reported as 50 to 100 nM.
Work on `Cn1cc(C(=O)[C@H]2CC[C@H]3[C@@H]4CC[C@@H]5C[C@](C)(O)CC[C@@H]5[C@H]4CC[C@]23C)nn1` [Compound 100] yielded an IC50 of over 100 nM.
With `C[C@@]1(O)CC[C@@]2(C)[C@H](CC[C@@H]3[C@@H]2CC[C@]2(C)[C@@H](C(=O)c4ccc5ccccc5c4)CC[C@@H]32)C1` [Compound 18] the IC50 was 50 to 100 nM.
`COC[C@]12CC[C@@](C)(O)C[C@@H]1CC[C@H]1[C@@H]3CC[C@H](C(=O)c4ccc(N(C)C)cc4)[C@@]3(C)CC[C@@H]12` [Compound 109] was tested, and the IC50 was over 100 nM.
`C[C@@]1(O)CC[C@@]2(C)[C@H](CC[C@@H]3[C@@H]2CC[C@]2(C)[C@@H](C(=O)c4cc(F)cc(F)c4)CC[C@@H]32)C1` [Compound 23] was tested, and the IC50 was 50 to 100 nM.
With `C[C@@]1(O)CC[C@@]2(C)[C@H](CC[C@@H]3[C@@H]2CC[C@]2(C)[C@@H](C(=O)c4ccc(-c5ccccc5)cc4)CC[C@@H]32)C1` [Compound 22] the IC50 was 50 to 100 nM.
For `Cc1cc(C)cc(C(=O)[C@H]2CC[C@H]3[C@@H]4CC[C@H]5C[C@](C)(O)CC[C@]5(C)[C@H]4CC[C@]23C)c1` [Compound 135], the IC50 was over 100 nM.
`C[C@@]1(O)CC[C@H]2[C@H](CC[C@@H]3[C@@H]2CC[C@]2(C)[C@@H](C(=O)c4cccc(F)c4)CC[C@@H]32)C1` [Compound 56] showed an IC50 of 20 to 50 nM.
Work on `CCc1ccc(C(=O)[C@H]2CC[C@H]3[C@@H]4CC[C@H]5C[C@](C)(O)CC[C@]5(COC)[C@H]4CC[C@]23C)cc1` [Compound 104] yielded an IC50 of over 100 nM.
`COc1cc(OC)cc(C(=O)[C@H]2CC[C@H]3[C@@H]4CC[C@@H]5C[C@](C)(O)CC[C@]5(C)[C@H]4CC[C@]23C)c1` [Compound 21] was tested, and the IC50 was over 100 nM.
In the case of `Cn1cc(C(=O)[C@H]2CC[C@H]3[C@@H]4CC[C@H]5C[C@](C)(O)CC[C@]5(C)[C@H]4CC[C@]23C)cn1` [Compound 124], the IC50 is reported as 50 to 100 nM.
Compound `COc1ccc2cc(C(=O)[C@H]3CC[C@H]4[C@@H]5CC[C@H]6C[C@](C)(O)CC[C@]6(C)[C@H]5CC[C@]34C)ccc2c1` [Compound 128] has an IC50 of over 100 nM.
`COC[C@]12CC[C@@](C)(O)C[C@@H]1CC[C@H]1[C@@H]3CC[C@H](C(=O)c4ccccc4OC)[C@@]3(C)CC[C@@H]12` [Compound 105] gave an IC50 of over 100 nM.
In the case of `C[C@@]1(O)CC[C@@]2(C)[C@@H](CC[C@@H]3[C@@H]2CC[C@]2(C)[C@@H](C(=O)c4ccccc4F)CC[C@@H]32)C1` [Compound 80], the IC50 is reported as over 100 nM.
For `C[C@@]1(O)CC[C@H]2[C@H](CC[C@@H]3[C@@H]2CC[C@]2(C)[C@@H](C(=O)c4cccs4)CC[C@@H]32)C1` [Compound 4], the IC50 was 20 to 50 nM.
With `C[C@@]1(O)CC[C@H]2[C@H](CC[C@@H]3[C@@H]2CC[C@]2(C)[C@@H](C(=O)c4nccs4)CC[C@@H]32)C1` [Compound 2] the IC50 was over 100 nM.
